# Assay results as given in ChEMBL document CHEMBL1137898, “Benzopyranones with retro-amide side chains as (inhibitory) beta-lactamase substrates” (Bioorg Med Chem Lett, 2004).
# Key:
# [1] = biological target: Beta-lactamase OXA-1 (Escherichia coli) (UniProt P13661); assay: Steady state kinetic as limiting rate of OXA-1 beta-lactamase hydrolysis
# [2] = biological target: Beta-lactamase TEM (Escherichia coli) (UniProt P62593); assay: Steady state kinetic as limiting rate of TEM-2 beta-lactamase hydrolysis
# Sequence of Beta-lactamase TEM (Escherichia coli) (P62593 whole entry): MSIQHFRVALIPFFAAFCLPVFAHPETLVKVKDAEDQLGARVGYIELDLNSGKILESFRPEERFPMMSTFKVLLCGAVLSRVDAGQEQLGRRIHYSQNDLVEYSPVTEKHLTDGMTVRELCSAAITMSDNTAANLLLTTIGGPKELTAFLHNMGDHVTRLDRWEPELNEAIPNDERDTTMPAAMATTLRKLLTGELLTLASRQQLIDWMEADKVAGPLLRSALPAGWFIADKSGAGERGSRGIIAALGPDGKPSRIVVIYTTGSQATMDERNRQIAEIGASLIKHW
# [3] = biological target: Beta-lactamase (Enterobacter cloacae) (UniProt P05364); assay: Steady state kinetic as limiting rate of Enterobacter cloacae P99 Beta-lactamase catalyzed hydrolysis
# Sequence of Beta-lactamase (Enterobacter cloacae) (P05364 21-381 limits assumed): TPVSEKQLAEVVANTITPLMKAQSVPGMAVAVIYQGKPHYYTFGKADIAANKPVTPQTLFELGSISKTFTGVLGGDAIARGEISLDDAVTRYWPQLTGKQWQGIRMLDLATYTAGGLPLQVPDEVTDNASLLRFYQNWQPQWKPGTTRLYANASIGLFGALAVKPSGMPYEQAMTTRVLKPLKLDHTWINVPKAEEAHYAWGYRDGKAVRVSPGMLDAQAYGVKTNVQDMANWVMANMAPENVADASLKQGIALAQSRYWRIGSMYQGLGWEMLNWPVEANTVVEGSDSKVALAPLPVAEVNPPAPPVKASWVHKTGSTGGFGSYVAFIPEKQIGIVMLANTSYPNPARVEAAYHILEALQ
# [4] = biological target: Beta-lactamase (Staphylococcus aureus) (UniProt P00807); assay: Steady state kinetic as limiting rate of Staphylococcus aureus PC1 Beta-lactamase hydrolysis
# [5] = biological target: D-alanyl-D-alanine carboxypeptidase (Streptomyces sp. R61) (UniProt P15555); assay: Second order rate constant for inactivation of Streptomyces R61 D-alanyl-D-alanine carboxypeptidase; conditions: Streptomyces spp.
# Sequence of D-alanyl-D-alanine carboxypeptidase (Streptomyces sp. R61) (P15555 whole entry): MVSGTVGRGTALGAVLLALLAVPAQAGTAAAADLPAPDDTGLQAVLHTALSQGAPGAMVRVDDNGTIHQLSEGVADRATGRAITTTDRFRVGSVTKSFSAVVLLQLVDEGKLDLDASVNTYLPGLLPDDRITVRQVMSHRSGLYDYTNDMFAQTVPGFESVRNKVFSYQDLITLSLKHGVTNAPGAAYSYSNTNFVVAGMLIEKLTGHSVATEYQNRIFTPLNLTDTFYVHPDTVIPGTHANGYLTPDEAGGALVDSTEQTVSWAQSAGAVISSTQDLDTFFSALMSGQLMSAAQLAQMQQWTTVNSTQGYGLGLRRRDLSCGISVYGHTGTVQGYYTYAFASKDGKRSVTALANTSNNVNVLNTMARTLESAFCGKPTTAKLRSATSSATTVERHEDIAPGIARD
# Sequence of Beta-lactamase OXA-1 (Escherichia coli) (P13661 whole entry): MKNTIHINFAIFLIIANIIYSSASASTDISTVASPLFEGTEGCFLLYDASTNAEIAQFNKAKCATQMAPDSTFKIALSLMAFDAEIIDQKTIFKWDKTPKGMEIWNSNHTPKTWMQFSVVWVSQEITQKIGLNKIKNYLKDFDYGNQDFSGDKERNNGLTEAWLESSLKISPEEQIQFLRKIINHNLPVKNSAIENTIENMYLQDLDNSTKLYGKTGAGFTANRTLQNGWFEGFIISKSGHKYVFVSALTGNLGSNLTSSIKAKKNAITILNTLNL
K cat [1] [s⁻¹],K cat [2] [s⁻¹],K cat [3] [s⁻¹],K cat [4] [s⁻¹],K [5],Compound
1.2,120,200,0.001,–,CC(=O)OCC1=C(C(=O)O)N2C(=O)[C@@H](NC(=O)Cc3cccs3)[C@H]2SC1
–,> 0.02,1.18,> 0.005,–,O=C(O)c1ccc2c(c1)OC(=O)C(C(=O)NCc1ccccc1)C2 (stereo not given)
0.25,25.5,0.44,0.01,22 1/sM,O=C(O)c1cccc2c1OC(=O)C(C(=O)NCc1ccccc1)C2 (stereo not given)
–,> 1,5.6,0.02,–,O=C(Cc1ccccc1)NC1Cc2ccc(C(=O)O)cc2OC1=O (stereo not given)
1.2,2.07,5.4,0.0047,1.5 1/sM,O=C(Cc1ccccc1)NC1Cc2cccc(C(=O)O)c2OC1=O (stereo not given)
